By Kd is commonly meant the free concentration of one partner at which half of the binding sites on the other are occupied at equilibrium, for simple one-to-one binding. A lower Kd goes with a tighter complex. By Km is commonly meant the concentration of substrate that gives half-maximal velocity.

Where two headings read alike, the source gives them in different places.

The results in this text go back to article PMC4794603 (Molecules and Cells, 2016).

The target in data set [1] is T1, CYP107W1 W178G mutant (Streptomyces avermitilis, UniProt Q93HJ0, W178G).
T1 sequence (Q93HJ0 1-404 W178G): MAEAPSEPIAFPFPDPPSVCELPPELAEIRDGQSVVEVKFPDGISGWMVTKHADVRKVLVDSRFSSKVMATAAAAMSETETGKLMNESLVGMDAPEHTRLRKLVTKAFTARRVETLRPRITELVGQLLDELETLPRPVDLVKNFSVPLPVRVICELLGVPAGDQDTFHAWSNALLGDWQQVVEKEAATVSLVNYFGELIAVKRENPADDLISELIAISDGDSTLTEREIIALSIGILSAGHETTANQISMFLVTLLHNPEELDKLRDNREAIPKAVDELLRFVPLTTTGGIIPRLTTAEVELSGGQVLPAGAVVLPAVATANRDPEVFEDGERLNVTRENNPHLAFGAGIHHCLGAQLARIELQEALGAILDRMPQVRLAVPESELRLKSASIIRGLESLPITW
Put plainly: UV-vis spectral binding titration.

In data set [2] the target is T2, CYP107W1 (Streptomyces avermitilis, UniProt Q93HJ0).
T2 sequence (Q93HJ0 1-404): T1 sequence (Q93HJ0 1-404 W178G)
Put plainly: co-crystal structure at […] Å. Format: binding.

For data set [3], the system named is [H][C@@]12OC(=O)C=C[C@@H](C)[C@H](O)[C@@H](C)C(=O)[C@@H](C)[C@H](O)[C@@H](C)C(=O)[C@H](C)[C@H](O)[C@@H](C)CC=CC=C[C@@H](CC)CC[C@@]([H])(O[C@@]3(CC[C@@H](C)[C@@H](C[C@H](C)O)O3)[C@@H]1C)[C@@H]2C. Put plainly: purified protein. As to conditions: heme.
Data set [4] deals with T1, CYP107W1 W178G mutant. Nature of the data set: UV-vis spectral binding titration. The source holds these as a separate data set.

Take `Clc1ccc(COC(Cn2ccnc2)c2ccc(Cl)cc2Cl)c(Cl)c1` (centres unmarked) [miconazole]: the Kd in data set [1] amounted to 3.1 ± 0.3 µM. Take `CC[C@H]1/C=C\C=C\C[C@@H](C)[C@H](O)[C@@](C)(O)C(=O)[C@@H](C)[C@H](O)[C@@H](C)C(=O)[C@@H](C)[C@H](O)[C@@H](C)/C=C/C(=O)O[C@@H]2[C@H](C)[C@H](CC1)O[C@]1(CC[C@H](C)[C@H](C[C@@H](C)O)O1)[C@H]2C` [OliA, oligomycin A]: the “co-crystal structure at 2.6 Å” value in data set [2] is “Coordinates and structure factors of CYP107W1-OliA have been deposited in the Protein Data Bank with accession number 4WQ0”. `Clc1ccc(COC(Cn2ccnc2)c2ccc(Cl)cc2Cl)cc1` (centres unmarked) [econazole] had a Kd in data set [1] of 5.3 ± 0.4 µM. Consider “CYP107W1 W178G mutant (Streptomyces avermitilis; W178G)”, for which, in data set [3], the Km turned out to be 3.4 ± 0.4 µM. Take `CC[C@@H]1/C=C/C=C/C[C@H](C)[C@H](O)[C@](C)(O)C(=O)[C@H](C)[C@@H](O)[C@H](C)C(=O)[C@H](C)[C@@H](O)[C@H](C)/C=C/C(=O)O[C@H]2[C@@H](C)[C@@H](CC1)O[C@@]1(CC[C@@H](C)[C@@H](C[C@H](C)O)O1)[C@@H]2C` [oligomycin A]: the Kd in data set [4] was 4.3 ± 0.7 µM.
